Results from patent US20250289850A1, “NOVEL ANTIMICROBIAL PEPTIDES AND METHODS OF USE THEREOF” (QATAR UNIVERSITY, priority 2024, published 2025).
Values after ≈ are worked out from the molar mass of the structure shown. Read-outs that look alike come from different tables or passages of the source. Where a SMILES comes first, the peptide text is derived from it.

Columns and labels:
[1] = system: Human Fibroblasts (ATCC PCS201010); assay type: cell-based
Method: The cytotoxicity and genotoxicity in vitro effect of the AMP was investigated. Human Fibroblasts (ATCC PCS201010, ThermoFischer Scientific, USA) and cells were seeded at a seeding density of 10,000 Cells/well in 96-well plates using Dulbecco's Modified Eagle Medium (DMEM, Gibco, USA). Media was supplemented with 10% Fetal bovine serum (FBS, Gibco, USA), and penicillin streptomycin (Gibco, USA). Cells were incubated overnight (16-18 hrs) at humidified conditions (5% CO2, 37° C.). Adherent cells were then treated with different concentrations of the AMP (7.8125, 15.625, 62.5, 125, 250, 500, 1000, 2000 μg/ml), and cells were then incubated at humidified conditions for 24 hrs. Then conditioned media was collected at different time points 0, 0.5, 1, 3, 6, 24 hours) and used for measuring Lactate Dehydrogenase (LDH, Thermofischer, USA) following manufacturers' instructions. Adherent cells were used to measure cell viability using AlamarBlue (Invitrogen, USA) following manufacturers' instructions at the following time points 0, 0.5, 1, 3, 6, and 24 hours.

[2] = system: MRSA (ATCC-33591); assay type: cell-based, Methicillin-Resistant Staphylococcus Aureus
Method: (§1) MRSA and E. coli strains were acquired from the microbiology bacterial culture stock at the Biomedical Research Centre (BRC), Qatar University. MRSA (ATCC-33591) and E. coli (ATCC-29522) strains were cultivated overnight on nutrient agar (Remel, ThermoFisher Scientific, Lenexa, KS, USA), followed by a 24 hour period of incubation at 37° C. and adjustment to 0.5 MacFarland Standard, which was measured using DensiCHEK PLUS (bioMérieux, France).
(§2) Minimal Inhibitory Concentration (MIC) of AMP MRSA and E. coli was determined as follows. […] serial dilutions of AMP starting from 2000 μg/ml of 160 μL Mueller Hinton broth (MHB, Lioflchem, Roseto degli Abruzzi, Italy) were transferred to the wells (100 μl each) in a 96-well flat-bottom plate (Microtesttm 96 tissue culture plate, Franklin Lakes, NJ, USA) to get concentrations of 2000, 1000, 500, 250, 125, 62.5, 31.25, 15.6, and 7.8 μg/mL. Then, 10 μL of 0.5 MacFarland for each type (MSRA and/or E. coli) of the measured strain was added to each well. To assure sterilization, the 96-well plate contained wells with MHB control, MHB with AMP treatment control, and controls for the bacterial strain mixed with MHB to guarantee bacterial growth. 96-well plates were then sealed tightly with a parafilm and placed in an aerobic shaker (Innova 44 Incubator Shaker) for 24 hours at 37° C. at a speed of 100 rpm. After this, the MIC of the treatment that effectively eliminated bacterial growth was determined with the naked eye following previously established procedure as described in Eltai N O et al., Antibacterial and Antibiofilm Activity of Mercaptophenol Functionalized-Gold Nanorods Against a Clinical Isolate of Methicillin-Resistant Staphylococcus aureus. […]
(§3) To determine the minimum biocidal concentration ([…]) for the AMP, 20 μL of a ten-fold serial dilution of the MIC with AMP was spread onto fresh nutrient agar media and incubated at 37° C. for around 18 hrs. Bacterial colonies were counted and compared to those grown on control nutrient agar, which had 20 μL of a solution composed only of bacteria and MHB.

[3] = system: MRSA biofilm; assay type: cell-based, Methicillin-Resistant Staphylococcus Aureus
Method: The first step in creating the biofilm was the selection of borosilicate glass beads 3-4 mm in diameter (ISOLAB Laborgeräte GmbH, Singapore). Then, the selected beads were soaked and cleaned with a soap solution; after that, they were washed with ddH2O, soaked in 80% ethanol for 24 hrs, and then washed properly using sterile water. Bacteria were then grown on these beads to create the biofilm by taking 20 μL of 0.5 McFarland from the bacterial strains (either MRSA or E. Coli), adding it to 200 μL of nutrient broth in 96-well flat-bottom plates, and placing one bead in cach well. 96-well plates were then sealed tightly with a parafilm and placed in an acrobic shaker (Innova 44 Incubator Shaker) for 72 hours at 37° C. at a speed of 100 rpm. Every 24 hours, 200 μL of fresh media was added to replace the consumed media. The beads were then placed in an Eppendorf tube containing 200 μL of nutrient broth and vortexed for 1 min to loosen any attached bacteria. This step was repeated after 24, 48, and 72 hours to observe the density of the biofilm formed on the beads. Then, 100 μL of the solution was serially diluted over ten-fold serial dilutions, and 20 μL of the serial dilution was spread onto fresh nutrient agar media and incubated at 37° C. for 18 hours. Biofilm colonies were then counted. Generated biofilms were used to investigate the selected AMP's ability to inhibit the MRSA and E. coli biofilms.
(§4) The antibiofilm activity of AMP on 72 hours biofilm cultures was tested by treating the biofilm beads with 2000, 1000, 500, 250, 125, and 62.5 μg/mL concentrations of the selected AMP in 96-well plates. Plates were then tightly sealed with a parafilm and placed in an acrobic shaker (Innova 44 Incubator Shaker) for 72 hours at 37° C. at a speed of 100 rpm. The antibiofilm activity of the AMP was determined after observing the wells that contained a transparent solution with the naked eye. Subsequently, the antibiofilm activity of the selected AMP was determined using SEM, as described below. […]

[4] = system: E. coli (ATCC-29522); assay type: cell-based, Escherichia coli
Method: as §1, §2, §3

[5] = system: human fibroblast cells; test: Genotoxicity, oxiselect comet assay; assay type: cell-based
Method: The genotoxicity effect of the selected AMP was also investigated. In this part, human fibroblast cells were cultured in 24-well plates at a seeding density of 100,000 cells/well; cells were then allowed to adhere and proliferate overnight (16-18 hours). The following day, cells were treated with the AMP (1000 and 2000 μg/ml; negative and positive controls were included in this part, and cells were treated with DMEM and H2O2, respectively. After which, cells were incubated at humidified conditions for 24 hours. Following that, the genotoxicity effect of the AMP was measured using oxiselect comet assay (Abcam, UK) and following the manufacturer's instructions. Images were taken using OLYMPUS BX62, at magnification 40×, attached to an OLYMPUS DP73 digital camera. Image analysis was done using the ImageJ application (OpenComet plugin).

[6] = system: E. coli biofilm; assay type: cell-based, Escherichia coli
Method: The first step in creating the biofilm was the selection of borosilicate glass beads 3-4 mm in diameter (ISOLAB Laborgeräte GmbH, Singapore). Then, the selected beads were soaked and cleaned with a soap solution; after that, they were washed with ddH2O, soaked in 80% ethanol for 24 hrs, and then washed properly using sterile water. Bacteria were then grown on these beads to create the biofilm by taking 20 μL of 0.5 McFarland from the bacterial strains (either MRSA or E. Coli), adding it to 200 μL of nutrient broth in 96-well flat-bottom plates, and placing one bead in cach well. 96-well plates were then sealed tightly with a parafilm and placed in an acrobic shaker (Innova 44 Incubator Shaker) for 72 hours at 37° C. at a speed of 100 rpm. Every 24 hours, 200 μL of fresh media was added to replace the consumed media. […] Biofilm colonies were then counted. […]
as §4, with “Plates were then tightly sealed with a parafilm and placed in an acrobic shaker (Innova 44 Incubator Shaker) for 72 hours at 37° C. at a speed of 100 rpm.” left out

Row | Structure (SMILES) | cellular cytotoxicity (LDH) [1] | MBC ([2]; ATCC-33591, 24 h) | antibacterial effect ([2]; MRSA, 2000, 1000 μg/ml AMP, 24 hours) | minimum inhibitory (MIC) ([2]; MRSA, 24 hours, 37° C., read with the naked eye) | antibiofilm effect ([3]; MRSA biofilm, 2000, 1000 μg/ml AMP) | antibiofilm effect ([3]; MRSA biofilm, highest dose 2000 μg/ml AMP) | MIC/MBC in biofilm ([3]; biofilm, 72 h) | MBC ([4]; ATCC-29522, 24 h) | antibacterial effect ([4]; E. coli, 2000, 1000 μg/ml AMP, 24 hours) | minimum inhibitory (MIC) ([4]; E. coli, 24 hours, 37° C., read with the naked eye) | genotoxicity (tail moment) [5] | antibiofilm effect ([6]; E. coli biofilm, only the highest concentration 2000 μg/ml AMP) | MIC/MBC in biofilm ([6]; biofilm, 72 h) | comet tail / DNA migration ([5]; human fibroblasts, AMP 2000, 500 μg/ml (figure legend), positive control H2O2)
1 | CC(C)C[C@H](NC(=O)[C@H](CCCNC(=N)N)NC(=O)[C@H](CCCNC(=N)N)NC(=O)[C@H](CCCNC(=N)N)NC(=O)[C@H](Cc1ccccc1)NC(=O)CNC(=O)[C@H](CCCNC(=N)N)NC(=O)[C@H](CS)NC(=O)[C@H](CCCNC(=N)N)NC(=O)CNC(=O)CNC(=O)[C@H](CS)NC(=O)[C@H](Cc1ccccc1)NC(=O)[C@H](C)N)C(=O)N[C@@H](Cc1ccccc1)C(=O)N[C@@H](CS)C(=O)N[C@H](C(=O)N[C@@H](CCCCN)C(=O)N[C@@H](C)C(=O)N[C@@H](CS)C(=O)O)[C@@H](C)O [AMP] (H-AFCGGRCRGFRRRLFCTKAC-OH; N-terminus and C-terminus assumed) | no cellular cytotoxicity was detected | 1000 µg/mL (≈ 433 µM) | biocidal effect | 500 µg/mL | eliminate the MRSA biofilm | totally inhibiting the MRSA biofilm growth | 1000 µg/mL (≈ 433 µM) | 1000 µg/mL (≈ 433 µM) | biocidal effect | 500 µg/mL | no significant effect | inhibit the E. coli biofilm | 2000 µg/mL (≈ 866 µM) | –
2 | OO [H2O2, reference compound] | – | – | – | – | – | – | – | – | – | – | – | – | – | extensive DNA migration
